Reference: ChEMBL document CHEMBL1124168 (J Med Chem, 1988)

How the values were obtained:
Sus scrofa = species: Sus scrofa; assay: (§1) In vitro antagonist activity was measured by inhibition of binding of [3H]LVP to renal medullary membrane preparation in pig; format: functional; details: Renal medulla
Canis familiaris [1] = assay: Antagonist activity was measured by maximum urine flow with a dose of 100 ug/kg peptide; format: functional, Canis lupus familiaris
Canis familiaris [2] = assay: Antagonist activity was measured by maximum urine osmolality with a dose of 100 ug/kg peptide after pretreatment with indomethacin in dog; format: functional, Canis lupus familiaris
Rattus norvegicus [3] = assay: […] antagonist activity was measured by dose required to lower urine osmolality to 300 mOsm/kg of H2O; format: functional
Vasopressin V2 receptor [4] = target: Vasopressin V2 receptor (Sus scrofa, UniProt P32307); assay: In vitro antagonist activity was measured by inhibition of vasopressin-stimulated adenylate cyclase in renal medullary preparation in pig; format: functional, tissue-based, Renal medulla
Vasopressin V2 receptor (Sus scrofa, UniProt P32307), sequence (P32307 whole entry): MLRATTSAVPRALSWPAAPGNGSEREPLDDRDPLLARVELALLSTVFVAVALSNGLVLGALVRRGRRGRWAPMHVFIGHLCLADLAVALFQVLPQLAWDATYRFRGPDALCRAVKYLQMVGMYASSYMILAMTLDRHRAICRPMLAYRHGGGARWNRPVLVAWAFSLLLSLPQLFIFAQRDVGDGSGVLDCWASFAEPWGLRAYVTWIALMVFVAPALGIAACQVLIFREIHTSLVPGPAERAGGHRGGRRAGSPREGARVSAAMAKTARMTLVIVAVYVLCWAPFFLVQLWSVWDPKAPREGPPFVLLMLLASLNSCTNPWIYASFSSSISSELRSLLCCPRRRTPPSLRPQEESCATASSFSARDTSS

Vasopressin V2 receptor [5] = target: Vasopressin V2 receptor (Homo sapiens, UniProt P30518); assay: In vitro antagonist activity was measured by inhibition of vasopressin-stimulated adenylate cyclase in renal medullary preparation in human; format: functional, tissue-based, Renal medulla
Vasopressin V2 receptor (Homo sapiens, UniProt P30518), sequence (P30518 whole entry): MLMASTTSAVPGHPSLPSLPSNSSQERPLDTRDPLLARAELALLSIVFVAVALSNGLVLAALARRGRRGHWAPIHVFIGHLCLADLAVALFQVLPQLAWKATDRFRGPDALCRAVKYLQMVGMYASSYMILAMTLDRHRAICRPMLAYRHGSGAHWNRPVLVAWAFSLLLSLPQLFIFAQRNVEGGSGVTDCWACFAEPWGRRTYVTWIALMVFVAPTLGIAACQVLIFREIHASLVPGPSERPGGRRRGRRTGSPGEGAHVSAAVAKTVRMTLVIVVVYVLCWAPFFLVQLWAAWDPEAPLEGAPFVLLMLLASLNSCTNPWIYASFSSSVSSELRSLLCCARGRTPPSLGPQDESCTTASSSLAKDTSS

Canis familiaris [6] = assay: Antagonist activity was measured by maximum urine osmolality with a dose of 100 ug/kg peptide after pretreatment with indomethacin ([…]) in dog; format: functional, Canis lupus familiaris
Rattus norvegicus [7] = assay: […] antagonist activity is measured by dose required to lower urine osmolality to 300 mOsm/kg of H2O; format: functional
[8] = target: Vasopressin V2 receptor (Sus scrofa) (UniProt P32307); assay: as §1; format: tissue-based; details: Renal medulla
Vasopressin V2 receptor (Sus scrofa), sequence (P32307 whole entry): as the sequence (P32307 whole entry) above

Adenylate cyclase = assay: In vitro antagonist activity was measured by inhibition of vasopressin-stimulated adenylate cyclase in renal medullary preparation in human
Canis familiaris [9] = assay: Agonist activity was measured as maximum urine osmolality with a dose of 100 ug/kg peptide after pretreatment with indomethacin in dog

SMILES | Kb (Sus scrofa) [nM] | Volume (Canis familiaris [1]) [mL/min] | U osm (Canis familiaris [2]) [mOsmol kg-1] | ED300 (Rattus norvegicus [3]) [mg/kg] | Ki (Vasopressin V2 receptor [5]) [nM] | further results
CCOc1ccc(C[C@H]2NC(=O)CC3(CCCCC3)CCCC(C(=O)N3CCC[C@@H]3C(=O)N[C@@H](CCCN=C(N)N)C(N)=O)NC(=O)[C@H](CC(N)=O)NC(=O)[C@H](C(C)C)NC(=O)[C@H](Cc3ccccc3)NC2=O)cc1 (some centres not stated) | 7.1 |  |  |  |  | 
CCOc1ccc(C[C@H]2NC(=O)CC3(CCCCC3)SSCC(C(=O)N[C@@H](CCCN=C(N)N)C(=O)N[C@H](CCCN=C(N)N)C(N)=O)NC(=O)[C@H](CC(N)=O)NC(=O)[C@H](C(C)C)NC(=O)[C@H](Cc3ccccc3)NC2=O)cc1 (some centres not stated) | 5.4 | 0.76 | 429 | 0.0135 | 2.4 | Ki (Vasopressin V2 receptor [4]): 1.6 nM
CCOc1ccc(C[C@H]2NC(=O)CC3(CCCCC3)SSC[C@@H](C(=O)N3CCC[C@H]3C(=O)N[C@@H](CCCN=C(N)N)C(N)=O)NC(=O)[C@H](CC(N)=O)NC(=O)[C@H](C(C)C)NC(=O)[C@H](Cc3ccccc3)NC2=O)cc1 |  | 0.07 | 1302 | 0.0084 |  | 
N=C(N)NCCC[C@H](NC(=O)[C@@H]1CCCN1C(=O)[C@@H]1CSSC[C@H](N)C(=O)N[C@@H](Cc2ccc(O)cc2)C(=O)N[C@@H](Cc2ccccc2)C(=O)N[C@@H](CCC(N)=O)C(=O)N[C@@H](CC(N)=O)C(=O)N1)C(=O)NCC(N)=O [VASOPRESSIN] |  | 1.4 |  |  |  | U osm (Canis familiaris [6]): 939 mOsmol kg-1
CCOc1ccc(C[C@H]2NC(=O)CC3(CCCCC3)CCC[C@@H](C(=O)N3CCC[C@H]3C(=O)N[C@@H](CCCN=C(N)N)C(N)=O)NC(=O)[C@H](CC(N)=O)NC(=O)[C@H](C(C)C)NC(=O)[C@H](Cc3ccccc3)NC2=O)cc1 [listing 1 of 2 here] |  |  |  |  | 2.7 | Ki (Vasopressin V2 receptor [4]): 3.5 nM
CCOc1ccc(C[C@H]2NC(=O)CC3(CCCCC3)CCCC(C(=O)N[C@@H](CCCN=C(N)N)C(N)=O)NC(=O)[C@H](CC(N)=O)NC(=O)[C@H](C(C)C)NC(=O)[C@H](Cc3ccccc3)NC2=O)cc1 (some centres not stated) |  |  |  |  |  | ED300 (Rattus norvegicus [7]): 0.028 mg/kg; Kb [8]: 14 nM; Ki (Adenylate cyclase): 4.4 nM
COc1ccc2c(c1)c(CC(=O)O)c(C)n2C(=O)c1ccc(Cl)cc1 [INDOMETHACIN] |  | 2.8 | 92 |  |  | 
CCOc1ccc(C[C@H]2NC(=O)CC3(CCCCC3)CCC[C@@H](C(=O)N3CCC[C@H]3C(=O)N[C@@H](CCCN=C(N)N)C(N)=O)NC(=O)[C@H](CC(N)=O)NC(=O)[C@H](C(C)C)NC(=O)[C@H](Cc3ccccc3)NC2=O)cc1 [listing 2 of 2 here] |  | 0.69 |  | 0.0122 |  | U osm (Canis familiaris [9]): 319 mOsmol kg-1
CCOc1ccc(C[C@H]2NC(=O)CC3(CCCCC3)SSCC(C(=O)N[C@@H](CCCN=C(N)N)C(N)=O)NC(=O)[C@H](CC(N)=O)NC(=O)[C@H](C(C)C)NC(=O)[C@H](Cc3ccccc3)NC2=O)cc1 (some centres not stated) | 10.2 |  |  |  | 1.5 | ED300 (Rattus norvegicus [7]): 0.058 mg/kg; Ki (Vasopressin V2 receptor [4]): 2.9 nM
CCOc1ccc(C[C@H]2NC(=O)CC3(CCCCC3)SSCC(C(=O)N3CCC[C@@H]3C(=O)N[C@@H](CCCN=C(N)N)C(N)=O)NC(=O)[C@H](CC(N)=O)NC(=O)[C@H](C(C)C)NC(=O)[C@H](Cc3ccccc3)NC2=O)cc1 (some centres not stated) | 11.8 |  |  |  |  | 
CCOc1ccc(C[C@H]2NC(=O)CC3(CCCCC3)CCCC(C(=O)N[C@@H](CCCN=C(N)N)C(=O)N[C@H](CCCN=C(N)N)C(N)=O)NC(=O)[C@H](CC(N)=O)NC(=O)[C@H](C(C)C)NC(=O)[C@H](Cc3ccccc3)NC2=O)cc1 (some centres not stated) | 5.1 | 4.6 | 56 | 0.009 | 3.9 | 
